Literature values as cited in patent US20050250804A1, “Pharmaceutical gel formulations” (Glenmark Pharmaceuticals Limited, priority 2004, published 2005).

Tests used:
human subjects = settings: repeated insult patch test, 50 human subjects, total of 15 applications; manufacturer's brochure
[1] = tested on: Interleukin-2, interferon gamma, Interleukin-4 and Interleukin-10 cytokine synthesis in human T cells

Structure (SMILES) | PII (rabbit skin) | skin irritation (rabbit skin) | primary dermal irritation / sensitization (human subjects) | concentration inhibiting IL-2, interferon gamma (Th1-type), IL-4 and IL-10 (Th2-type) cytokine synthesis [1]
CN1CCCC1=O [Pharmasolve®, N-methyl-2-pyrrolidone] | 0.5 | practically nonirritating | neither a primary dermal irritant nor a sensitizer | –
CC[C@@H]1/C=C(\C)C[C@H](C)C[C@H](OC)[C@H]2O[C@@](O)(C(=O)C(=O)N3CCCC[C@H]3C(=O)O[C@H](/C(C)=C/[C@@H]3CC[C@H](Cl)[C@H](OC)C3)[C@H](C)[C@@H](O)CC1=O)[C@H](C)C[C@@H]2OC [pimecrolimus, (1R,9S,12S,13R,14S,17R,18E,21 S,23S,24R,25S,27R)-12-[(1E)-2-{(1R,3R,4S)-4-chloro-3-methoxycyclohexyl}-1-methylvinyl]-17-ethyl-1,14-dihydroxy-23,25-dimethoxy-13,19,21,27-tetramethyl-11,28-dioxa-4-aza-tricyclo[22.3.1.04,9]octacos-18-ene-2,3,10,16-tetraone] | – | – | – | nanomolar concentrations
